According to PMC8700061, “Fragment-Sized and Bidentate (Immuno)Proteasome Inhibitors Derived from Cysteine and Threonine Targeting Warheads” (Cells, 2021):
Marks after values point to notes of the source that are not given here.

Tests used:
Assay type in all cases: biochemical
hMAO-B = target: T1, hMAO-B (Homo sapiens, UniProt P27338); experiment: Monoamine oxidase assay, hMAO-B; details: 30 min pre-incubation, read-out: Residual activity [%] ± SD, hMAO-B
T1 construct: purchased Sigma Aldrich; host or cells: BTI-TN-5B1-4 insect cells
T1 sequence (P27338 1-520): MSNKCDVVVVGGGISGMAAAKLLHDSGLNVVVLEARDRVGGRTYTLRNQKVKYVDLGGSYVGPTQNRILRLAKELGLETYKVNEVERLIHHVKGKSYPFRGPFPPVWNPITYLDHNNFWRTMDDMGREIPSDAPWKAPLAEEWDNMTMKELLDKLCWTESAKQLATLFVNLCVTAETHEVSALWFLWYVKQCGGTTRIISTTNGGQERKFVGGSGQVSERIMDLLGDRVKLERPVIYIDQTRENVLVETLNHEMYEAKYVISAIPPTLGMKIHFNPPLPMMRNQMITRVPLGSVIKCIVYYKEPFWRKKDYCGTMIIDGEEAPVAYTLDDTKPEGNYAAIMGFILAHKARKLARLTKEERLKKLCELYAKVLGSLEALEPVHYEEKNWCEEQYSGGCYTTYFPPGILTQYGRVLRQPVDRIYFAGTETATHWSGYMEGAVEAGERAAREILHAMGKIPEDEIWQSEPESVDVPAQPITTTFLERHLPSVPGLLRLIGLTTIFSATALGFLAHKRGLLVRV
Experimental: The effects of the test compounds on hMAO were investigated using fluorimetric assay. Recombinant hMAO-A and hMAO-B, expressed in BTI-TN-5B1-4 insect cells, horseradish peroxidase type II and p-tyramine hydrochloride were purchased from Sigma Aldrich. Amplex Red was synthesized as previously described.
Briefly, 50 mM sodium phosphate buffer (pH = 7.4, 0.05 vol.% Triton X-114) containing the compounds or the reference inhibitors and hMAO were incubated at 37 °C for 30 min. The reaction was started by adding Amplex Red (final concentration, 250 µM), horseradish peroxidase (final activity, 1 U/mL), and p-tyramine (final concentration, 1 mM). The increase in fluorescence (λex = 530 nm, λem = 590 nm) was monitored for 30 min at 37 °C. DMSO at a concentration of 1.5% (v/v) was used for the control experiments. For the determination of blank (b), the enzyme was replaced by phosphate-buffered solution. Each measurement was performed in duplicate. Inhibitory potencies were expressed as residual activities (RA), as described under the Cholinesterase assay section.

β5 subunit of human cCP = target: T2, β5 subunit of human cCP (Homo sapiens, UniProt P20618+P28074); experiment: Inhibition of β5 activity (RA, IC50), Suc-LLVY-AMC; details: 30 min pre-incubation, SDS
T2 construct: purchased Boston Biochem, Inc., Cambridge, MA, USA
Experimental: (§1) Residual activity measurements were performed at 10 μM final concentrations in the assay buffer (0.01% SDS, 50 mM Tris-HCl, 0.5 mM EDTA, pH 7.4). Stock solutions of the compounds were prepared in DMSO. To 50 μL of each compound in buffer, 25 μL of 0.8 nM human iCP or human cCP (both from Boston Biochem, Inc., Cambridge, MA, USA) were added. After incubation at 37 °C for 30 min, the reaction was started by adding of 25 μL of 100 μM relevant fluorogenic substrate: acetyl-Nle-Pro-Nle-Asp-AMC (Ac-nLPnLD-AMC, (Bachem, Bubendorf, Switzerland)) for β1, acetyl-Pro-Ala-Leu-7-amino-4-methylcoumarin (Ac-PAL-AMC, (Boston Biochem, Inc., Cambridge, MA, USA)) for β1i, t-butyloxycarbonyl-Leu-Arg-Arg-7-amino-4-methylcoumarin (Boc-LRR-AMC, (Bachem, Bubendorf, Switzerland)) for β2 and β2i, succinyl-Leu-Leu-Val-Tyr-7-amino-4-methylcoumarin (Suc-LLVY-AMC) (Bachem, Bubendorf, Switzerland) for β5 and β5i. Reaction progress was recorded on BioTek Synergy HT microplate reader by monitoring fluorescence at 460 nm (λex = 360 nm) for 90 min at 37 °C. The initial linear ranges were used to calculate velocity and determine residual activity. In the case of evaluation of β1, βi, β2, and β2i activities, the assay buffer was modified by replacing SDS with the proteasomal activator PA28α (Boston Biochem, Inc., Cambridge, MA, USA).
Final assay mixtures contained 0.2 nM human iCP or 0.2 nM human cCP in assay buffer (0.01% SDS (or PA28α in cases of β1, β1i subunits), 50 mM Tris-HCl, 0.5 mM EDTA, pH 7.4). Inhibitors were dissolved in DMSO and added to the black 96-well plates for at least eight different concentrations (the final concentration of DMSO was not more than 1%). After 30 min of incubation at 37 °C, the reaction was started by adding the substrate Suc-LLVY-AMC (for β5 and β5i) or Ac-nLPnLD-AMC (for β1) or Ac-PAL-AMC (for β1i). Fluorescence was monitored at 460 nm (λex = 360 nm) for 90 min at 37 °C. The progress of the reactions was recorded and the initial linear ranges were used to calculate the velocity. IC50 values were calculated using GraphPadPrism (GraphPad Software, San Diego, CA, USA) and are means from at least three independent determinations.

β2i subunit of human iCP = target: T3, β2i subunit of human iCP (Homo sapiens, UniProt P40306+P49720); experiment: Residual β2i activity, Boc-LRR-AMC; details: 10 µM, PA28α
T3 construct: purchased Boston Biochem, Inc., Cambridge, MA, USA
Experimental: as §1

hAChE = target: T4, hAChE (Homo sapiens, UniProt P22303); experiment: Cholinesterase assay (Ellman), hAChE; details: 30 min pre-incubation, read-out: Residual activity [%] ± SD, hAChE
T4 construct: gift of Xavier Brazzolotto, Florian Nachon and José Dias (IRBA, Brétigny-sur-Orge, France)
Experimental: The activity of the compounds against ChEs, namely hAChE and hBChE, was determined by the Ellman method. 5,5′-Dithiobis-2-nitrobenzoic acid (Ellman’s reagent; DTNB), butyrylthiocholine iodide, and acetylthiocholine iodides were from Sigma-Aldrich. Recombinant hAChE and hBChE were kindly provided by Xavier Brazzolotto, Florian Nachon, and José Dias (IRBA, Brétigny-sur-Orge, France). Reactions were performed in a final volume of 300 µL of 0.1 M phosphate-buffered solution, pH = 8.0, containing 370 µM DTNB, 500 μM butyrylthiocholine/acetylthiocholine iodide, and approximately 1 nM or 50–100 pM hBChE or hAChE, respectively. The reactions were started by the addition of the substrate after 30-min pre-incubation at room temperature. The final organic solvent (DMSO) content was always 1%. The formation of the yellow 5-thio-2-nitrobenzoate anion was monitored for 2 min at 412 nm, using a 96-well microplate reader (Synergy HT, BioTek Instruments, Inc., Santa Clara, CA, USA). The initial velocities in the presence (vi) and absence (vo) of the test compounds were calculated. Inhibitory potencies were expressed as residual activities (RA), according to the equation RA = (vi − b)/(vo − b), where b is the blank value.

β2 subunit of human cCP = target: T5, β2 subunit of human cCP (Homo sapiens, UniProt P49720+Q99436); experiment: Residual β2 activity, Boc-LRR-AMC; details: PA28α; for β2 (RA [%]): 10 µM; for remaining activity at 10 µM: Table 3, read-out: β2 (RA [%])
T5 construct: purchased Boston Biochem, Inc., Cambridge, MA, USA
Experimental: as §1

T4 sequence (P22303 32-614): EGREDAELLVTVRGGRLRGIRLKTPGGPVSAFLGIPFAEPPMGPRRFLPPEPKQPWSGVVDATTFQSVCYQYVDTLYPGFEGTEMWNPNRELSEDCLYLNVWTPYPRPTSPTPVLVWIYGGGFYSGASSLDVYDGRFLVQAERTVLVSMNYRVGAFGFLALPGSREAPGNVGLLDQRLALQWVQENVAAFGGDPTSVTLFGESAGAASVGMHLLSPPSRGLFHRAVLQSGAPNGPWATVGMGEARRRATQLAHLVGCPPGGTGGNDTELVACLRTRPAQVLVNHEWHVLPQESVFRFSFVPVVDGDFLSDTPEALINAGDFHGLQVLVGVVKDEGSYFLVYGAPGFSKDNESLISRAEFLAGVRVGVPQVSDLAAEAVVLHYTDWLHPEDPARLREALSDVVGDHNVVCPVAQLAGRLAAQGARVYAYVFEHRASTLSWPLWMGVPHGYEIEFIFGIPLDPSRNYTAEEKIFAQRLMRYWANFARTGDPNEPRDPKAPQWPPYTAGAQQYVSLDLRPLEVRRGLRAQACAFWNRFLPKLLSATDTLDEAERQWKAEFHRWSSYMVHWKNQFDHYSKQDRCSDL

Compound | remaining activity at 100 µM (hMAO-B) [%] | IC50 (β5 subunit of human cCP) [µM] | β2i (RA [%]) (β2i subunit of human iCP; Table 6) | remaining activity at 100 µM (hAChE) [%] | β2 (RA [%]) (β2 subunit of human cCP; Table 6) | β5 (RA [%]) at 10 µM (β5 subunit of human cCP) [% ^c] | β2i (RA [%]) (β2i subunit of human iCP; Table 3) | remaining activity at 10 µM (β2 subunit of human cCP) [%] | β2 (RA [%]) (β2 subunit of human cCP; Table 3)
CC(C)C[C@H](NC(=O)Cc1ccc2oc(C#N)nc2c1)B1O[C@@H]2C[C@@H]3C[C@@H](C3(C)C)[C@]2(C)O1 [Compound 39] | 47 ± 1 | 3.6 ± 1.1 | NA (NA, Not active (RA above 95%)) | > 50 | NA (NA, Not active (RA above 95%)) | – | – | – | –
CC(=O)Oc1cccc2oc(C#N)nc12 [Compound 14] | > 50 | – | – | 11 ± 2 | – | 56 | NA (NA, Not active (RA above 90%)) | > 90 | –
N#Cc1nc2c(O)cccc2o1 [Compound 10] | > 50 | 30 ± 12 | – | 27 ± 2 | – | – | NA (NA, Not active (RA above 90%)) | > 90 | –
CC(=O)Oc1ccc2oc(C#N)nc2c1 [Compound 15] | 33 | – | – | 33 ± 2 | – | 55 | NA (NA, Not active (RA above 90%)) | > 90 | –
N#Cc1nc2cccc(O)c2o1 [Compound 13] | > 50 | 11 ± 9 | – | 25 ± 1 | – | – | 83% | 71 | –
COc1cccc2oc(C#N)nc12 [Compound 6] | 35 ± 1 | – | – | > 50 | – | 63 | NA (NA, Not active (RA above 90%)) | – | NA (NA, Not active (RA above 90%))
CC(C)C[C@H](NC(=O)CCn1c(C#N)nc2ccccc21)B1O[C@@H]2C[C@@H]3C[C@@H](C3(C)C)[C@]2(C)O1 [Compound 30] | > 50 | 0.7 ± 0.1 | NA (NA, Not active (RA above 95%)) | > 50 | NA (NA, Not active (RA above 95%)) | – | – | – | –
CC(C)C[C@H](NC(=O)CCCn1c(C#N)nc2ccccc21)B1O[C@@H]2C[C@@H]3C[C@@H](C3(C)C)[C@]2(C)O1 [Compound 31] | > 50 | 13 ± 4 | NA (NA, Not active (RA above 95%)) | > 50 | NA (NA, Not active (RA above 95%)) | – | – | – | –
N#Cc1nc2cc(O)ccc2o1 [Compound 11] | 29 | – | – | 27 ± 1 | – | 53 | NA (NA, Not active (RA above 90%)) | > 90 | –
CC(C)C[C@H](NC(=O)CCn1c(C#N)nc2ccccc21)B(O)O [Compound 34] | > 50 | 1.8 ± 0.4 | NA (NA, Not active (RA above 95%)) | > 50 | NA (NA, Not active (RA above 95%)) | – | – | – | –
CC(C)C[C@H](NC(=O)CCCn1c(C#N)nc2ccccc21)B(O)O [Compound 35] | > 50 | 16 ± 8 | NA (NA, Not active (RA above 95%)) | > 50 | NA (NA, Not active (RA above 95%)) | – | – | – | –
CC(C)C[C@H](NC(=O)CCn1c(C#N)nc2cccc(Cl)c21)B1O[C@@H]2C[C@@H]3C[C@@H](C3(C)C)[C@]2(C)O1 [Compound 38] | 42 | 2 ± 0.7 | NA (NA, Not active (RA above 95%)) | > 50 | NA (NA, Not active (RA above 95%)) | – | – | – | –
C=Cc1nc(CC(=O)N[C@@H](CC(C)C)B2O[C@@H]3C[C@@H]4C[C@@H](C4(C)C)[C@]3(C)O2)cs1 [Compound 28] | > 50 | 8.2 | NA (NA, Not active (RA above 95%)) | > 50 | NA (NA, Not active (RA above 95%)) | – | – | – | –
CC(C)C[C@H](NC(=O)Cc1ccc2oc(C#N)nc2c1)B(O)O [Compound 40] | 44 | 2 ± 0.7 | NA (NA, Not active (RA above 95%)) | 46 ± 1 | NA (NA, Not active (RA above 95%)) | – | – | – | –
